The source of these data is patent US20250296942A1, “Phosphonate-Based Coordination Complexes and Methods of Preparation and Use Thereof” (University of Puerto Rico, priority 2021, published 2025).

Series [1] can be described thus: Release of letrozole from drug-loaded 2,2′-BPBPA-Ca in FaSSGF. Type of series: physicochemical. The note with it: 37° C., 150 rpm, duplicate. On the procedure:
LET release curve from 2,2′-BPBPA-Ca. The release curve of LET from 2,2′-BPBPA-Ca was assessed in FaSSGF. A calibration curve for LET in FaSSGF was previously prepared; the lambda max (λmax) was detected at 238 nm (Supporting Information). About 100 mL of FaSSGF were placed in a 250-mL beaker and left in constant stirring at 37° C. (150 rpm).
(§1) Subsequently, […] of powdered drug-loaded 2,2′-BPBPA-Ca (experimental) were placed into the FaSSGF solution. After each time point (0, 1, 3, 6, 24, 48, and 72 h), an aliquot (1 mL) was taken out and diluted in a 5 mL volumetric flask. An aliquot was taken out before adding the drug-loaded material to record the first time point (0 h). Then, the absorbance was measured at 238 nm to determine the amount (%) of LET release from the 2,2′-BPBPA-Ca.
TGA thermographs for these drug-loaded materials were collected to determine the amount of LET loaded into the channels of 2,2′-BPBPA and nano-Ca@2,2′-BPBPA (20-21%, FIG. 8B). Furthermore, the release capacity of these drug-loaded BPCCs was assessed in physiological conditions (FaSSGF, pH=1.60) at 37° C. The LET release from 2,2′-BPBPA-Ca was determined by measuring the absorption of the supernatant at the lambda max (λmax=[…]) and quantifying the increase in the LET concentration over time.
as §1, with “Release experiment. […] About 100 mL of FaSSGF were placed in a 250-mL beaker and left in constant stirring at 37° C. (150 rpm). Subsequently,” for “Subsequently,”, “2,2′-BPBPA-Ca. The release curve of LET (control) in FaSSGF was used for comparison.” for “2,2′-BPBPA-Ca.”

The nature of series [2]: Hydroxyapatite (HA) affinity/binding assay of 2,2′-BPBPA and nano-Ca@2,2′-BPBPA. The note with it: for Amount (%) bound to HA, Mean: HA 20 mg, duplicate. Here is the method: (§2) Affinity assays experiment. Synthetic HA was employed to explore the affinity of nano-Ca@2,2′-BPBPA to the bone microenvironment. HA (20 mg) was exposed to nano-Ca@2,2′-BPBPA (5 mL, 0.5 mg/mL). The 2,2′-BPBPA (0.5 mg/mL) and HA (20 mg) were used as control groups. All experimental and control groups were left under constant stirring (150 rpm) for 0-12 d. Finally, the supernatant was collected, centrifuged (5 min, 1500 rpm), and the absorbance was measured at λmax=299 nm of maximum absorption (1, 2, 3, 4, 7, 8, 9, 10, 11, 12 d) to determine the amount (%) of 2,2′-BPBPA bound to HA after each period. The experiment was performed in duplicate. Once the experiment was completed, HA, HA-2,2′-BPBPA, and HA-nano-Ca@2,2′-BPBPA were characterized by SEM-EDS and PXRD.
The affinity of nano-Ca@22′-BPBPA to the bone was investigated using hydroxyapatite (HA). The HA is the main constituent of the bone microenvironment; this mineral represents an ideal target when treating bone-related diseases.^45 The binding assay of the nano-Ca@2,2′-BPBPA to HA was performed in PBS at 37° C., the HA as a received reagent was exposed to this nano-BPCCs for 0-12 d. The binding assay for 2,2′-BPBPA to HA was determined as a control experiment. The affinity of these materials to HA was assessed by measuring the absorbance of the supernatant at the lambda max (λmax=299 nm) to quantify the decrease in the 2,2′-BPBPA concentration over time. Binding curves (FIG. 163A) reveal that 2,2′-BPBPA and the nano-Ca@2,2′-BPBPA presented between 32 to 37% binding to HA after 2 d. The ligand reaches about 90% of binding to HA after 7 d while the nano-Ca@2,2′-BPBPA offers a 93% of binding to this mineral after 8 d.
as §2, with “Binding assay with hydroxyapatite (HA).” for “Affinity assays experiment.”, “Experiment” for “The experiment”, “PXRD. Table 35 present the percentage (%) of 2,2′-BPBPA and nano-Ca@2,2′-BPBPA bound to HA in PBS. FIGS. 200-201 show the binding curves for 2,2′-BPBPA and nano-Ca@2,2′-BPBPA.” for “PXRD.”

Each structure is given as a SMILES string.

With `N#Cc1ccc(C(c2ccc(C#N)cc2)n2cncn2)cc1` [LET, letrozole], the “Percentage (%) of letrozole (LET) released, Mean” value in series [1] (1 h) is recorded as 65%; in series [1] (3 h) it was 72%; in series [1] (6 h), 75%; in series [1] (24 h), 93%; in series [1] (48 h), 94%; in series [1] (72 h), 94%.
As for `O=P(O)(O)c1ccc(-c2ccc(P(=O)(O)O)cn2)nc1` [2,2′-BPBPA, 2,2′-bipyridine-5,5′-bisphosphonic acid], the “maximum binding to HA” value in series [2] (0.5 mg/mL) is recorded as 99%. The “time to reach maximum binding to HA” value in series [2] (0.5 mg/mL) was determined as 12 days. Moreover, the “Amount (%) bound to HA, Mean” value is 18% in series [2] (0.5 mg/mL, PBS, 1 d); 37% in series [2] (0.5 mg/mL, PBS, 2 d); 66% in series [2] (0.5 mg/mL, PBS, 3 d); 71% in series [2] (0.5 mg/mL, PBS, 4 d); 90% in series [2] (0.5 mg/mL, PBS, 7 d); 99% in series [2] (0.5 mg/mL, PBS, 8 d). The “Amount (%) bound to HA, Mean” value was 99% in series [2] (0.5 mg/mL, PBS, 11 d) and 99% in series [2] (0.5 mg/mL, PBS, 12 d). Besides, the “bound to HA” value in series [2] (PBS, 37 °C, 7 d) is listed as “about 90%”.
